In patent US20260007133A1, “HERBICIDAL COMPOSITION COMPRISING AZINE COMPOUNDS” (BASF SE, priority 2022, published 2026):

Tests used:
Assay type in all cases: in vivo
[1] = test system: Lolium multiflorum; assay: Greenhouse pre-emergence (PRE) herbicidal test on LOLMU; details: 20 DAT
Outline: (§1)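 Pre-emergence greenhouse assay: sown loamy-sand pots (humus approx. 3.0%) were kept under transparent hoods until rooting, then grown at species-appropriate 10-25° C or 20-35° C. Response ratings of 0 (no damage) to 100 (no plants emerged) were recorded 20 days after application.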

[2] = test system: Abutilon theophrasti; assay: Greenhouse pre-emergence (PRE) herbicidal test on ABUTH; details: PRE, 20 DAT; for % activity solo application: ABUTH
Outline: as §1

[3] = test system: Euphorbia heterophylla; assay: Greenhouse post-emergence (POST) herbicidal test on EPHHL; details: 20 DAT
Outline: (§2)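 POST spray at 3–15 cm plant height, BBCH stage as given; loamy sand, ~3.0% humus; 10-25° C / 20-35° C per species; 0–100 damage scale; read 20 DAT.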

[4] = test system: Amaranthus retroflexus; assay: Greenhouse pre-emergence (PRE) herbicidal test on AMARE; details: PRE, 20 DAT; for % activity solo application: AMARE
Protocol: The culture containers used were plastic pots containing loamy sand with approximately 3.0% of humus as substrate. The seeds of the test plants were sown separately for each species.
The containers were irrigated gently to promote germination and growth and subsequently covered with transparent plastic hoods until the plants had rooted.
Depending on the species, the plants were kept at 10-25° C. and 20-35° C., respectively.
The test period extended over 2 to 4 weeks. During this time, the plants were tended and their response to the individual treatments was evaluated.
Evaluation was carried out using a scale from 0 to 100. 100 means no emergence of the plants, or complete destruction of at least the above-ground parts, and 0 means no damage or normal course of growth. A good herbicidal activity is given at values of at least 70, and very good herbicidal activity is given at values of at least 85.
As indicated application was either post emergent (POST) at the respective growth stage (GS) of the weed (BBCH code), or pre-emergent (PRE). […]

[5] = test system: Ambrosia artemisiifolia; assay: Greenhouse pre-emergence (PRE) herbicidal test on AMBEL; details: 20 DAT; for % activity solo application: AMBEL
[6] = test system: Geranium pusillum; assay: Greenhouse post-emergence (POST) herbicidal test on GERPU; details: Geranium pusillum, post-emergence, 480 h, 20 DAT
Outline: as §2

[7] = test system: Commelina benghalensis; assay: Greenhouse pre-emergence (PRE) herbicidal test on COMBE; details: 20 DAT; for % activity solo application: COMBE
Outline: as §1

[8] = test system: Echinochloa crus-galli; assay: Greenhouse post-emergence (POST) herbicidal test on ECHCG; details: Echinochloa crus-galli, post-emergence, 480 h, 20 DAT
Outline: as §2

[9] = test system: Digitaria sanguinalis; assay: Greenhouse post-emergence (POST) herbicidal test on DIGSA; details: 20 DAT; for % activity solo application: DIGSA
Outline: as §2

[10] = test system: Euphorbia heterophylla; assay: Greenhouse pre-emergence (PRE) herbicidal test on EPHHL; details: 20 DAT; for % activity solo application: EPHHL
Outline: as §1

[11] = test system: Setaria viridis; assay: Greenhouse pre-emergence (PRE) herbicidal test on SETVI; details: PRE, 20 DAT; for % activity solo application: SETVI
Outline: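 Herbicidal effect is scored from 0 (no damage) to 100 (no emergence or above-ground parts destroyed), 20 days after treatment. Application is pre-emergent onto sown pots, with components given as a 5% by weight emulsion concentrate in the spray liquor.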

[12] = test system: Echinochloa crus-galli; assay: Greenhouse pre-emergence (PRE) herbicidal test on ECHCG; details: PRE, 20 DAT; for % activity solo application: ECHCG
[13] = test system: Abutilon theophrasti; assay: Greenhouse post-emergence (POST) herbicidal test on ABUTH; details: POST, ABUTH, 16 gai/ha, 20 DAT
Outline: as §2

[14] = test system: Alopecurus myosuroides; assay: Greenhouse pre-emergence (PRE) herbicidal test on ALOMY; details: PRE, ALOMY, 20 DAT
Outline: as §1

Compound `CCOC(=O)COc1ccccc1Oc1nc(-n2c(=O)cc(C(F)(F)F)n(C)c2=O)c(F)cc1Cl` [2-[2-[[3-chloro-6-[3,6-dihydro-3-methyl-2,6-dioxo-4-(trifluoromethyl)-1(2H)-pyrimidinyl]-5-fluoro-2-pyridinyl]oxy]phenoxy]acetic acid ethyl ester] has an inhibition at […] ([1]; Lolium multiflorum, pre-emergence, 480 h, LOLMU PRE, use rate 0.25 gai/ha, read-out: % activity) of 0%, a pest or weed control at […] ([1]; Lolium multiflorum, pre-emergence, 480 h, PRE, 0.25 gai/ha) of 0% and a pest or weed control at 0.5 g/ha ([1]; Lolium multiflorum, pre-emergence, 480 h, PRE, 0.5 gai/ha) of 0%. The pest or weed control at […] ([2]; Abutilon theophrasti, pre-emergence, 480 h, 0.25 gai/ha) was 0%, the pest or weed control at 0.5 g/ha ([2]; Abutilon theophrasti, pre-emergence, 480 h, 0.5 gai/ha) was 10% and the inhibition at […] ([3]; Euphorbia heterophylla, post-emergence, 480 h, EPHHL POST, use rate 0.25 gai/ha) was 50%. The pest or weed control at […] ([3]; Euphorbia heterophylla, post-emergence, 480 h, POST, 0.25 gai/ha) was 50%, the pest or weed control at 0.5 g/ha ([4]; Amaranthus retroflexus, pre-emergence, 480 h, 0.5 gai/ha) was 0% and the inhibition at […] ([5]; Ambrosia artemisiifolia, pre-emergence, 480 h, AMBEL PRE, use rate 0.25 gai/ha, read-out: % activity) was 0%. It also gave an inhibition at 0.5 g/ha ([5]; Ambrosia artemisiifolia, pre-emergence, 480 h, AMBEL PRE, use rate 0.5 gai/ha, read-out: % activity) of 0%, a pest or weed control at […] ([5]; Ambrosia artemisiifolia, pre-emergence, 480 h, PRE, 0.25 gai/ha) of 0% and an inhibition at 0.5 g/ha ([6]; GERPU POST, use rate 0.5 gai/ha) of 85%. The pest or weed control at 0.5 g/ha ([6]; POST, 0.5 gai/ha) was 85%, the inhibition at […] ([7]; Commelina benghalensis, pre-emergence, 480 h, COMBE PRE, use rate 0.25 gai/ha, read-out: % activity) was 0% and the inhibition at 0.5 g/ha ([7]; Commelina benghalensis, pre-emergence, 480 h, COMBE PRE, use rate 0.5 gai/ha) was 0%. The pest or weed control at 0.5 g/ha ([7]; Commelina benghalensis, pre-emergence, 480 h, PRE, 0.5 gai/ha) was 0%, the inhibition at […] ([8]; ECHCG POST, use rate 0.25 gai/ha) was 15% and the inhibition at 0.5 g/ha ([8]; ECHCG POST, use rate 0.5 gai/ha, read-out: % activity) was 80%. For the same compound, the inhibition at 0.5 g/ha ([9]; Digitaria sanguinalis, post-emergence, 480 h, DIGSA POST, use rate 0.5 gai/ha) was 80%, the pest or weed control at […] ([9]; Digitaria sanguinalis, post-emergence, 480 h, POST, 0.25 gai/ha) was 15% and the inhibition at […] ([10]; Euphorbia heterophylla, pre-emergence, 480 h, EPHHL PRE, use rate 0.25 gai/ha, read-out: % activity) was 5%. For the same compound, the inhibition at 0.5 g/ha ([10]; Euphorbia heterophylla, pre-emergence, 480 h, EPHHL PRE, use rate 0.5 gai/ha, read-out: % activity) was 0%, the pest or weed control at […] ([10]; Euphorbia heterophylla, pre-emergence, 480 h, PRE, 0.25 gai/ha) was 5% and the pest or weed control at 0.5 g/ha ([10]; Euphorbia heterophylla, pre-emergence, 480 h, PRE, 0.5 gai/ha) was 0%. The pest or weed control at […] ([11]; Setaria viridis, pre-emergence, 480 h, 0.25 gai/ha) was 0% and the pest or weed control at 0.5 g/ha ([11]; Setaria viridis, pre-emergence, 480 h, 0.5 gai/ha) was 0%.
Work on `COCc1cnc(C2=NC(C)(C(C)C)C(=O)N2)c(C(=O)O)c1` (centres unmarked) [Imazamox, imazamox] yielded a pest or weed control at 1 g/ha ([1]; Lolium multiflorum, pre-emergence, 480 h, PRE, 1 gai/ha) of 0%, a pest or weed control at 1 g/ha ([12]; Echinochloa crus-galli, pre-emergence, 480 h, 1 gai/ha) of 0% and a pest or weed control at 1 g/ha ([2]; Abutilon theophrasti, pre-emergence, 480 h, 1 gai/ha) of 10%. The pest or weed control at 1 g/ha ([3]; Euphorbia heterophylla, post-emergence, 480 h, POST, 1 gai/ha) was 10%, the pest or weed control at 2 g/ha ([3]; Euphorbia heterophylla, post-emergence, 480 h, POST, 2 gai/ha) was 10% and the pest or weed control at 2 g/ha ([4]; Amaranthus retroflexus, pre-emergence, 480 h, 2 gai/ha) was 25%. The pest or weed control at 1 g/ha ([5]; Ambrosia artemisiifolia, pre-emergence, 480 h, PRE, 1 gai/ha) was 0%, the pest or weed control at 2 g/ha ([5]; Ambrosia artemisiifolia, pre-emergence, 480 h, PRE, 2 gai/ha, read-out: % activity) was 0% and the pest or weed control at 1 g/ha ([7]; Commelina benghalensis, pre-emergence, 480 h, PRE, 1 gai/ha) was 0%. For the same compound, the pest or weed control at 2 g/ha ([7]; Commelina benghalensis, pre-emergence, 480 h, PRE, 2 gai/ha, read-out: % activity) was 0%, the pest or weed control at 2 g/ha ([8]; POST, 2 gai/ha) was 55% and the pest or weed control at 2 g/ha ([9]; Digitaria sanguinalis, post-emergence, 480 h, POST, 2 gai/ha) was 55%. It also gave a pest or weed control at 1 g/ha ([10]; Euphorbia heterophylla, pre-emergence, 480 h, PRE, 1 gai/ha) of 10%, a pest or weed control at 2 g/ha ([10]; Euphorbia heterophylla, pre-emergence, 480 h, PRE, 2 gai/ha) of 15% and a pest or weed control at 2 g/ha ([11]; Setaria viridis, pre-emergence, 480 h, 2 gai/ha) of 5%.
For `FC(F)c1cc(-c2c(Cl)cccc2Oc2ncc(Cl)cn2)on1` [Rimisoxafen, rimisoxafen], the “% activity solo application” value ([1]; PRE, LOLMU, 8 gai/ha) was 0%, the “% activity solo application” value [13] was 80% and the “% activity solo application” value ([12]; 4 gai/ha) was 0%. For the same compound, the “% activity solo application” value ([12]; 8 gai/ha) was 0%, the “% activity solo application” value ([12]; 16 gai/ha) was 0% and the “% activity solo application” value ([12]; 32 gai/ha) was 0%. The “% activity solo application” value ([2]; 4 gai/ha) was 0%, the “% activity solo application” value ([2]; 8 gai/ha) was 5% and the “% activity solo application” value ([2]; 16 gai/ha) was 5%. The “% activity solo application” value ([2]; 32 gai/ha) was 35%, the “% activity solo application” value ([3]; POST, EPHHL, 16 gai/ha) was 15% and the “% activity solo application” value ([4]; 8 gai/ha) was 25%. For the same compound, the “% activity solo application” value ([4]; 16 gai/ha) was 75%, the “% activity solo application” value ([5]; PRE, 4 gai/ha) was 0% and the “% activity solo application” value ([5]; PRE, 8 gai/ha) was 0%. The “% activity solo application” value ([5]; PRE, 16 gai/ha) was 0%, the “% activity solo application” value ([5]; PRE, 32 gai/ha) was 0% and the “% activity solo application” value ([7]; PRE, 4 gai/ha) was 0%. The “% activity solo application” value ([7]; PRE, 8 gai/ha) was 10%, the “% activity solo application” value ([7]; PRE, 16 gai/ha) was 0% and the “% activity solo application” value ([7]; PRE, 32 gai/ha) was 30%. The “% activity solo application” value ([9]; POST, 4 gai/ha) was 5%, the “% activity solo application” value ([9]; POST, 8 gai/ha) was 5% and the “% activity solo application” value ([9]; POST, 16 gai/ha) was 10%. The “% activity solo application” value ([9]; POST, 32 gai/ha) was 20%, the “% activity solo application” value ([10]; PRE, 8 gai/ha) was 0% and the “% activity solo application” value ([10]; PRE, 16 gai/ha) was 0%. For the same compound, the “% activity solo application” value ([14]; 4 gai/ha) was 0%, the “% activity solo application” value ([14]; 8 gai/ha) was 0% and the “% activity solo application” value ([14]; 16 gai/ha) was 0%. The “% activity solo application” value ([14]; 32 gai/ha) was 0%, the “% activity solo application” value ([11]; 8 gai/ha) was 35% and the “% activity solo application” value ([11]; 16 gai/ha) was 35%.
